test: recombinant UMI read abundance after kanamycin selection (control-corrected) (log10(CPM+1)); higher = more efficient recombination; extreme values may be limits of the assay; sequences stand for … in AGTGCAGAGAAAATCGGCCAGTTTTCTCTGCCTGCAGTCCGCATGCCGTGGGACCCCTTGGGTTCTAACCTGTTGCCTAGATTTATGCAGCGGACTGCCTTTCTCCCAAAGTGATAAACCGG…AGGTTGGTTTCACT; site = the 11-nt donor
In short: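 Values, expressed as log10(CPM+1), derive from recombinant UMI counts converted to CPM, averaged across replicates and scaled by control-derived factors. Plating was with IPTG (0.07 mM) plus kanamycin or unselected, two replicates each. The screen pooled donor and donor-binding-loop pairs for the IS621 bridge recombinase in Escherichia coli.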
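Also: IS621 bridge recombinase in Escherichia coli cells against a fixed T5 target plasmid.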

| Sequence | recombinant UMI read abundance (log10) |
| --- | --- |
| TTCTCAGCATGGACCGGTTTTCCCGGTAATCCGTATTTGAG (site TTCTCAGCTCT) | 0.00607 |
| TTCTCTCCATGGACCGGTTTTCCCGGTAATCCGTATTTGAA (site TTCTCTCCTTT) | 0.019 |
| TTCTTGACATGGACCGGTTTTCCCGGTAATCCGTATTTGTG (site TTCTTGACTCA) | 0.0069 |
| TTGAATCCATGGACCGGTTTTCCCGGTAATCCGTATTTGGA (site TTGAATCCTTC) | 0.123 |
| TTGACCCCATGGACCGGTTTTCCCGGTAATCCGTATTTGAT (site TTGACCCCTAT) | 0.347 |
| TTGACGTCATGGACCGGTTTTCCCGGTAATCCGTATTTGTT (site TTGACGTCTAA) | 0.101 |
| TTGAGAACATGGACCGGTTTTCCCGGTAATCCGTATTTGAC (site TTGAGAACTGT) | 0.447 |
| TTGAGAACATGGACCGGTTTTCCCGGTAATCCGTATTTGCC (site TTGAGAACTGG) | 1.36 |
| TTGATCTCATGGACCGGTTTTCCCGGTAATCCGTATTTGCG (site TTGATCTCTCG) | 1.95 |
| TTGCAGCCATGGACCGGTTTTCCCGGTAATCCGTATTTGCT (site TTGCAGCCTAG) | 0.0502 |
| TTGCATGCATGGACCGGTTTTCCCGGTAATCCGTATTTGCA (site TTGCATGCTTG) | 0 |
| TTGCCGGCATGGACCGGTTTTCCCGGTAATCCGTATTTGGC (site TAGCCGGCTGC) | 0.00655 |
| TTGCCGGCATGGACCGGTTTTCCCGGTAATCCGTATTTGGC (site TCGCCGGCTGC) | 0 |
| TTGCCGGCATGGACCGGTTTTCCCGGTAATCCGTATTTGGC (site TGGCCGGCTGC) | 0 |
| TTGCCGGCATGGACCGGTTTTCCCGGTAATCCGTATTTGGC (site TTGCCGGCTGC) | 0 |
| TTGCCGTCATGGACCGGTTTTCCCGGTAATCCGTATTTGGC (site TTGCCGTCTGC) | 0 |
| TTGCTAGCATGGACCGGTTTTCCCGGTAATCCGTATTTGAA (site TAGCTAGCTTT) | 0.016 |
| TTGCTAGCATGGACCGGTTTTCCCGGTAATCCGTATTTGAA (site TCGCTAGCTTT) | 0.0147 |
| TTGCTAGCATGGACCGGTTTTCCCGGTAATCCGTATTTGAA (site TGGCTAGCTTT) | 0.0255 |

| Sequence | recombinant UMI read abundance (log10) |
| --- | --- |
| TTGCTAGCATGGACCGGTTTTCCCGGTAATCCGTATTTGAA (site TTGCTAGCTTT) | 0.252 |
| TTGCTGTCATGGACCGGTTTTCCCGGTAATCCGTATTTGAT (site TTGCTGTCTAT) | 0.00531 |
| TTGGAATCATGGACCGGTTTTCCCGGTAATCCGTATTTGCA (site TTGGAATCTTG) | 2.76 |
| TTGGCACCATGGACCGGTTTTCCCGGTAATCCGTATTTGAG (site TTGGCACCTCT) | 0.0325 |
| TTGGCGGCATGGACCGGTTTTCCCGGTAATCCGTATTTGCT (site TTAGCGGCTAG) | 1.3 |
| TTGGCGGCATGGACCGGTTTTCCCGGTAATCCGTATTTGCT (site TTCGCGGCTAG) | 0 |
| TTGGCGGCATGGACCGGTTTTCCCGGTAATCCGTATTTGCT (site TTGGCGGCTAG) | 1.44 |
| TTGGCGGCATGGACCGGTTTTCCCGGTAATCCGTATTTGCT (site TTTGCGGCTAG) | 0.00953 |
| TTGGGTGCATGGACCGGTTTTCCCGGTAATCCGTATTTGAT (site TTGGGTGCTAT) | 1.6 |
| TTGGTTTCATGGACCGGTTTTCCCGGTAATCCGTATTTGTT (site TTGGTTTCTAA) | 0.417 |
| TTGTAGACATGGACCGGTTTTCCCGGTAATCCGTATTTGCA (site TTGTAGACTTG) | 1.87 |
| TTGTCTACATGGACCGGTTTTCCCGGTAATCCGTATTTGCG (site TTGTCTACTCG) | 0.0108 |
| TTGTGACCATGGACCGGTTTTCCCGGTAATCCGTATTTGAT (site TTGTGACCTAT) | 0.00587 |
| TTGTGAGCATGGACCGGTTTTCCCGGTAATCCGTATTTGGT (site TTGTGAGCTAC) | 0.701 |
| TTGTTCCCATGGACCGGTTTTCCCGGTAATCCGTATTTGTG (site TTGTTCCCTCA) | 0.187 |
| TTTAATTCATGGACCGGTTTTCCCGGTAATCCGTATTTGCA (site TTTAATTCTTG) | 0 |
| TTTAATTCATGGACCGGTTTTCCCGGTAATCCGTATTTGGG (site TTTAATTCTCC) | 1.33 |
| TTTATTACATGGACCGGTTTTCCCGGTAATCCGTATTTGGT (site TTTATTACTAC) | 0.0132 |
| TTTATTCCATGGACCGGTTTTCCCGGTAATCCGTATTTGAC (site TTTATTCCTGT) | 0 |

| Sequence | recombinant UMI read abundance (log10) |
| --- | --- |
| TTTCAGACATGGACCGGTTTTCCCGGTAATCCGTATTTGTT (site TTTCAGACTAA) | 0.004 |
| TTTCCAACATGGACCGGTTTTCCCGGTAATCCGTATTTGAA (site TTTCCAACTTT) | 0.0166 |
| TTTCCCGCATGGACCGGTTTTCCCGGTAATCCGTATTTGTC (site TTTCCCGCTGA) | 1.42 |
| TTTCCGGCATGGACCGGTTTTCCCGGTAATCCGTATTTGCT (site TTTACGGCTAG) | 0.0335 |
| TTTCCGGCATGGACCGGTTTTCCCGGTAATCCGTATTTGCT (site TTTCCGGCTAG) | 0.016 |
| TTTCCGGCATGGACCGGTTTTCCCGGTAATCCGTATTTGCT (site TTTGCGGCTAG) | 0.00591 |
| TTTCCGGCATGGACCGGTTTTCCCGGTAATCCGTATTTGCT (site TTTTCGGCTAG) | 0.0123 |
| TTTCTAGCATGGACCGGTTTTCCCGGTAATCCGTATTTGAC (site TTTCTAGCTGT) | 0.582 |
| TTTCTGTCATGGACCGGTTTTCCCGGTAATCCGTATTTGAA (site TTTCTGTCTTT) | 0.0118 |
| TTTGCCTCATGGACCGGTTTTCCCGGTAATCCGTATTTGCC (site TTTGCCTCTGG) | 1.48 |
| TTTGCGGCATGGACCGGTTTTCCCGGTAATCCGTATTTGAT (site TTTGCGGCTAA) | 0.015 |
| TTTGCGGCATGGACCGGTTTTCCCGGTAATCCGTATTTGAT (site TTTGCGGCTAC) | 0.00828 |
| TTTGCGGCATGGACCGGTTTTCCCGGTAATCCGTATTTGAT (site TTTGCGGCTAG) | 0 |
| TTTGCGGCATGGACCGGTTTTCCCGGTAATCCGTATTTGAT (site TTTGCGGCTAT) | 0.414 |
| TTTGCGGCATGGACCGGTTTTCCCGGTAATCCGTATTTGCT (site ATTGCGGCTAG) | 0.00696 |
| TTTGCGGCATGGACCGGTTTTCCCGGTAATCCGTATTTGCT (site CTTGCGGCTAG) | 0.00458 |
| TTTGCGGCATGGACCGGTTTTCCCGGTAATCCGTATTTGCT (site GTTGCGGCTAG) | 0.00615 |
| TTTGCGGCATGGACCGGTTTTCCCGGTAATCCGTATTTGCT (site TATGCGGCTAG) | 0.00481 |
| TTTGCGGCATGGACCGGTTTTCCCGGTAATCCGTATTTGCT (site TCTGCGGCTAG) | 0 |

— the supplement of paper PMC11208160
